# Source: patent EP0414533A1, “Use of iodopropargyl esters of alpha-amino acid derivatives as antimicrobial agents” (ROHM AND HAAS COMPANY, priority 1989, dated 1991)
# Values joined by “and” are separate entries in the source; they are usually repeats but may differ in a detail not shown here. Equal values may be shown once. Where a name gives a salt, the structure may show the parent alone. Read-outs that look alike come from different tables or passages of the source.
# Assays:
# THREE FUNGI = assay: MIC test against three fungi in Mycophile Broth, pH 5.0, read after 8 days (Table VII); type: cell-based; conditions: for MIC: 192 h
# Pythium ultimum (PYU) = assay: In-vitro plant fungicide test; type: cell-based; conditions: 25 ppm, Table IVa; for inhibition of growth at 25 ppm: Globisporangium ultimum, read-out: % Control at 25 ppm PYU
# Rhizoctonia solani (RHI) = assay: In-vitro plant fungicide test; type: cell-based; conditions: 25 ppm, Table IVa; for inhibition of growth at 25 ppm: Rhizoctonia solani, read-out: % Control at 25 ppm RHI
# [1] = tested on: Xanthomonas campestris (XAN); assay: In-vitro plant fungicide test; type: cell-based; conditions: 25 ppm, Table IVa; for inhibition of growth at 25 ppm: Xanthomonas campestris, read-out: % Control at 25 ppm XAN
# [2] = tested on: Aureobasidium pullulans (APUL); assay: Minimum inhibitory concentration (MIC), broth two-fold serial dilution test; type: cell-based; conditions: for MIC: Aureobasidium pullulans
# Fusarium roseum (FUS) = assay: In-vitro plant fungicide test; type: cell-based; conditions: Table IVa, *=Phytotoxic; for inhibition of growth at 25 ppm: Fusarium sambucinum, read-out: % Control at 25 ppm FUS, 25 ppm
# Aspergillus niger (ANIG) = assay: Minimum inhibitory concentration (MIC), broth two-fold serial dilution test; type: cell-based; conditions: for MIC: Aspergillus niger
# [3] = tested on: Staphylococcus aureus (SAUR); assay: as above; conditions: for MIC: Staphylococcus aureus, read-out: MIC (G+) SAUR, M9G (minimal salts media with glucose); for MIC (G+) SAUR: M9G (minimal salts media with glucose)
# Excerpt: (§1) When the test is ready to be done, each vessel in the dilution series, except the first vessel, contains an equal volume of compound free broth. The first vessel contains twice the volume of broth with the starting concentration of test compound. One half of the broth from the first vessel is transferred to the second vessel. After being mixed, one half the resulting volume is removed from the second vessel and transferred to the third vessel. The entire cycle is repeated sufficiently to give a series of concentrations amounting to 500, 250, 125, 63, 31, 16, 8, and 4 ppm (or 100, 50, 25, 12.5, 6.2, 3.1, 1.6, and 0.8), respectively.
# (§2) Each vessel is then inoculated with a cell suspension of the appropriate test organism. Bacteria are grown in broth, fungi on agar slants for a time and at a temperature appropriate to the species being tested, and algae are a mixture of green algae and blue-green bacteria grown in a nutrient media. At the end of the growth period, in the case of bacteria, the broth is vortexed to disperse the cells.
# (§3) The vessels are then incubated at the appropriate temperature. After the incubation, the vessels are examined for growth/no growth.
# Septoria nodorum (SEP) = assay: In-vitro plant fungicide test; type: cell-based; conditions: 25 ppm, Table IVa; for inhibition of growth at 25 ppm: Parastagonospora nodorum, read-out: % Control at 25 ppm SEP
# [4] = tested on: Phytophthora capsici (PHY); assay: In-vitro plant fungicide test; type: cell-based; conditions: 25 ppm, Table IVa; for inhibition of growth at 25 ppm: Phytophthora capsici, read-out: % Control at 25 ppm PHY
# Escherichia coli (ECOL) = assay: Minimum inhibitory concentration (MIC), broth two-fold serial dilution test; conditions: for MIC: Escherichia coli, read-out: MIC (G-) ECOL, M9G (minimal salts media with glucose); for MIC (G-) ECOL: M9G (minimal salts media with glucose)
# [5] = tested on: Pseudomonas aerugenosa (PSAE); assay: as above; conditions: for MIC: Pseudomonas, read-out: MIC (G-) PSAE, M9G (minimal salts media with glucose); for MIC (G-) PSAE: M9G (minimal salts media with glucose)
# Excerpt: as §1, §2, §3
# Piricularia oryzae (PIR) = assay: microbe, parasite or virus in culture; type: cell-based; conditions: for inhibition of growth at 25 ppm: read-out: % Control at 25 ppm PIR
# [6] = tested on: Pseudomonas fluorescens (PSFL); assay: Minimum inhibitory concentration (MIC), broth two-fold serial dilution test; conditions: for MIC: Pseudomonas fluorescens, read-out: MIC (G-) PSFL, M9G (minimal salts media with glucose); for MIC (G-) PSFL: M9G (minimal salts media with glucose)
# Botrytis cinerea (BOC) = assay: In-vitro plant fungicide test; type: cell-based; conditions: 25 ppm, Table IVa, *=Phytotoxic; for inhibition of growth at 25 ppm: Botrytis cinerea, read-out: % Control at 25 ppm BOC
# [7] = tested on: Cochliobolus sativus (HEL); assay: In-vitro plant fungicide test; type: cell-based; conditions: 25 ppm, Table IVa, *=Phytotoxic; for inhibition of growth at 25 ppm: Bipolaris sorokiniana, read-out: % Control at 25 ppm HEL
# [8] = Aspergillus niger, serial dilutions from 50 ppm, read after 8 days of incubation, read-out: MIC ANIG
# [9] = Aureobasidium pullulans, serial dilutions from 50 ppm, read after 8 days of incubation, read-out: MIC APUL
# [10] = Gloeophyllum trabeum, serial dilutions from 50 ppm, read after 8 days of incubation, read-out: MIC GTRA
# [11] = M9G (minimal salts media with glucose), Table IIIa, read-out: MIC (F) APUL
# [12] = M9G (minimal salts media with glucose), Table IIIa, read-out: MIC (F) ANIG
# [13] = Aspergillus niger, serial dilutions from 50 ppm, read after 8 days of incubation
# [14] = Aureobasidium pullulans, serial dilutions from 50 ppm, read after 8 days of incubation
# [15] = Aspergillus niger, pH 5, read-out: MIC ANIG, Aspergillus niger, serial dilutions from 50 ppm, read after 8 days of incubation
# [16] = Aureobasidium pullulans, pH 5, read-out: MIC APUL, Aureobasidium pullulans, serial dilutions from 50 ppm, read after 8 days of incubation
# [17] = Gloeophyllum trabeum, pH 5, read-out: MIC GTRA, Gloeophyllum trabeum, serial dilutions from 50 ppm, read after 8 days of incubation
# [18] = M9G (minimal salts media with glucose), Table IIIa, trifluoroacetate
# [19] = M9G (minimal salts media with glucose), Table IIIa
# [20] = M9G (minimal salts media with glucose), Table IIIc, iodopropargyl esters of peptides, read-out: MIC (F) APUL
# [21] = M9G (minimal salts media with glucose), Table IIIc, iodopropargyl esters of peptides, read-out: MIC (F) ANIG
# [22] = Table IIIc, iodopropargyl esters of peptides
# [23] = M9G (minimal salts media with glucose), Table IIIc, iodopropargyl esters of peptides
SMILES,MIC (THREE FUNGI; [8]),MIC (THREE FUNGI; [9]),MIC (THREE FUNGI; [10]),inhibition of growth at 25 ppm (Pythium ultimum (PYU)),inhibition of growth at 25 ppm (Rhizoctonia solani (RHI)),inhibition of growth at 25 ppm [1],inhibition of growth at 25 ppm (Fusarium roseum (FUS)),MIC ([3]; Table IIIa),inhibition of growth at 25 ppm (Septoria nodorum (SEP)),inhibition of growth at 25 ppm [4],MIC (Escherichia coli (ECOL); Table IIIa),MIC ([5]; Table IIIa),inhibition of growth at 25 ppm (Piricularia oryzae (PIR)),inhibition of growth at 25 ppm (Botrytis cinerea (BOC)),inhibition of growth at 25 ppm [7],further results
"CC(C)(C)OC(=O)N[C@@H](CSCc1ccccc1)C(=O)OCC#CI [Compound 4, N-t-butoxycarbonyl-S-benzyl-L-cysteine iodopropargyl ester]",50 µg/mL,50 µg/mL,6.2 µg/mL,100%,100%,0%,95%,25 µg/mL,100%,100%,> 100 µg/mL,> 100 µg/mL,100%,–,–,"MIC [2, 11]: 3 µg/mL; % Control at 25 ppm FUS (Fusarium roseum (FUS)): 100%; MIC (Aspergillus niger (ANIG); [12]): 3 µg/mL; MIC ([6]; Table IIIa): > 10 µg/mL"
"C[C@@H](OCc1ccccc1)[C@H](NC(=O)OC(C)(C)C)C(=O)OCC#CI [Compound 5, N-t-butoxycarbonyl-O-benzyl-L-threonine iodopropargyl ester]",> 50 µg/mL,> 50 µg/mL,6.2 µg/mL,0%,100%,0%,95%,63 µg/mL,90%,50%,> 100 µg/mL,> 100 µg/mL,100%,–,–,"MIC [2, 11]: < 0.8 µg/mL; MIC (Aspergillus niger (ANIG); [12]): 25 µg/mL; % Control at 25 ppm SEP (Septoria nodorum (SEP)): 75%; MIC ([6]; Table IIIa): > 100 µg/mL"
"C#CCSC[C@H](NC(=O)OC(C)(C)C)C(=O)OCC#CI [Compound 6, N-t-butoxycarbonyl-S-propargyl-L-cysteine iodopropargyl ester]",–,–,–,–,–,–,–,–,–,–,–,–,–,–,–,"MIC ANIG (THREE FUNGI; [13]): 12.5 ppm; MIC APUL (THREE FUNGI; [14]): 25 ppm; MIC GTRA (THREE FUNGI; Gloeophyllum trabeum, serial dilutions from 50 ppm, read after 8 days of incubation): 3.2 ppm; % Control at 25 ppm BOC (Botrytis cinerea (BOC)): 0%; % Control at 25 ppm PYU (Pythium ultimum (PYU)): 100%; % Control at 25 ppm RHI (Rhizoctonia solani (RHI)): 100%; % Control at 25 ppm XAN [1]: 0%; % Control at 25 ppm FUS (Fusarium roseum (FUS)): 100%; MIC (G+) SAUR ([3]; Table IIIa): >100 PPM and 64 PPM; % Control at 25 ppm SEP (Septoria nodorum (SEP)): 100%; % Control at 25 ppm PHY [4]: 100%; % Control at 25 ppm PIR (Piricularia oryzae (PIR)): 100%; % Control at 25 ppm HEL [7]: 100%"
"NCC(=O)OCC#CI [Compound 7, glycine iodopropargyl ester trifluoroacetate]",–,–,–,100%,100%,0%,100%,–,100%,100%,100 µg/mL,100 µg/mL,100%,100%,100%,"MIC (THREE FUNGI; [15]): 25 µg/mL; MIC (THREE FUNGI; [16]): 50 µg/mL; MIC (THREE FUNGI; [17]): 12.5 µg/mL; MIC (G-) ECOL (Escherichia coli (ECOL); Table IIIa, trifluoroacetate): 64 PPM; MIC (G-) PSAE ([5]; Table IIIa, trifluoroacetate): 125 PPM"
"C[C@H](N)C(=O)OCC#CI [Compound 8, L-alanine iodopropargyl ester trifluoroacetate]",–,–,–,100%,100%,0%,100%,–,100%,100%,64 µg/mL,125 µg/mL,100%,100%,100%,"MIC (THREE FUNGI; [15]): 12.5 µg/mL; MIC (THREE FUNGI; [16]): 25 µg/mL; MIC (THREE FUNGI; [17]): 12.5 µg/mL; MIC (F) APUL [2, 18]: <4 PPM and 2 PPM; MIC (F) ANIG (Aspergillus niger (ANIG); [18]): <4 PPM and 3 PPM; MIC (G-) ECOL (Escherichia coli (ECOL); Table IIIa, trifluoroacetate): >100 PPM; MIC (G-) PSAE ([5]; Table IIIa, trifluoroacetate): >100 PPM"
"C[C@H](N)C(=O)OCC#CI [Compound 22, L-alanine iodopropargyl ester]",–,–,–,–,–,–,–,–,–,–,–,–,–,–,–,"MIC ANIG (THREE FUNGI; [13]): 12.5 ppm; MIC APUL (THREE FUNGI; [14]): 50 ppm; % Control at 25 ppm XAN [1]: 0%; MIC (F) APUL [2, 19]: <0.8 PPM; MIC (F) ANIG (Aspergillus niger (ANIG); [19]): <0.8 PPM; MIC (G+) SAUR ([3]; Table IIIa): 100 PPM; % Control at 25 ppm SEP (Septoria nodorum (SEP)): 100%; MIC (G-) ECOL (Escherichia coli (ECOL); Table IIIa): 100 PPM; MIC (G-) PSAE ([5]; Table IIIa): 100 PPM; % Control at 25 ppm PIR (Piricularia oryzae (PIR)): 100%; MIC (G-) PSFL ([6]; Table IIIa): 100 PPM"
"C[C@@H](NC(=O)OC(C)(C)C)C(=O)OCC#CI [Compound 23, N-t-butoxycarbonyl-D-alanine iodopropargyl ester]",6.2 µg/mL,25 µg/mL,1.6 µg/mL,100%,100%,0%,100%,63 µg/mL,100%,–,–,–,100%,100%,100%,"MIC [2, 11]: < 4 µg/mL; MIC (Aspergillus niger (ANIG); [12]): < 4 µg/mL; MIC (G+) SAUR ([3]; Table IIIa): 32 PPM"
"C[C@@H](N)C(=O)OCC#CI [Compound 24, D-alanine iodopropargyl ester trifluoroacetate]",–,–,–,100%,100%,0%,75%,125 µg/mL,100%,–,32 µg/mL,–,100%,0%,100%,"MIC (THREE FUNGI; [15]): 12.5 µg/mL; MIC (THREE FUNGI; [16]): 25 µg/mL; MIC (THREE FUNGI; [17]): 12.5 µg/mL; MIC ([2]; read-out: MIC (F) APUL, M9G (minimal salts media with glucose), Table IIIa): < 4 µg/mL; MIC (Aspergillus niger (ANIG); read-out: MIC (F) ANIG, M9G (minimal salts media with glucose), Table IIIa): < 4 µg/mL; MIC (G+) SAUR ([3]; Table IIIa, trifluoroacetate): 63 PPM; MIC (G-) ECOL (Escherichia coli (ECOL); Table IIIa, trifluoroacetate): 63 PPM; MIC (G-) PSFL ([6]; Table IIIa, trifluoroacetate): 32 PPM; MIC ([6]; Table IIIa): 63 µg/mL"
"C[C@@H](NC(=O)OC(C)(C)C)C(=O)N[C@H](C)C(=O)OCC#CI [Compound 25, N-t-butoxycarbonyl-D-alanyl-D-alanine iodopropargyl ester]",50 µg/mL,> 50 µg/mL,6.2 µg/mL,–,–,–,–,–,–,–,–,–,–,–,–,"MIC [2, 20]: < 4 µg/mL; MIC (Aspergillus niger (ANIG); [21]): < 4 µg/mL; MIC (Escherichia coli (ECOL); [22]): 63 µg/mL"
"C[C@H](NC(=O)[C@@H](C)NC(=O)OC(C)(C)C)C(=O)OCC#CI [Compound 26, N-t-butoxycarbonyl-D-alanyl-L-alanine iodopropargyl ester]",25 µg/mL,50 µg/mL,6.2 µg/mL,–,–,–,–,–,–,–,–,–,–,–,–,"MIC [2, 20]: < 4 µg/mL; MIC (F) APUL [2, 23]: 8 PPM; MIC (F) ANIG (Aspergillus niger (ANIG); [23]): <4 PPM; MIC (Escherichia coli (ECOL); [22]): 63 µg/mL; MIC (G-) ECOL (Escherichia coli (ECOL); [22]): 32 PPM"
"C[C@H](NC(=O)CNC(=O)OC(C)(C)C)C(=O)OCC#CI [Compound 27, N-t-butoxycarbonylglycyl-L-alanine iodopropargyl ester]",25 µg/mL,50 µg/mL,6.2 µg/mL,100%,100%,0%,100%,–,100%,–,–,–,0%,75%,100%,"MIC [2, 20]: 8 µg/mL; MIC (Aspergillus niger (ANIG); [21]): < 4 µg/mL; MIC [3, 22]: 125 µg/mL; MIC (Escherichia coli (ECOL); [22]): 250 µg/mL; MIC [5, 22]: 250 µg/mL; MIC [6, 22]: 125 µg/mL"
